Source: ChEMBL document CHEMBL1201862, “PubChem BioAssay data set” (2004)
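1) Cells in 96-well plates. 2) Compound, 48 h, 5 concentrations. 3) Linear interpolation between surrounding doses. 4) Unreached endpoint = highest concentration. Here, GI50 denotes the concentration required for 50% inhibition of growth.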 Active and inactive are the calls of the source. No stated cut-off is given here; in the data, active = GI50 up to about 1.1 µM and inactive = higher.

Legend:
Assay in all cases: NCI-60 cell line screen, 48 h
[1] = tested on: LXFL 529
[2] = tested on: HOP-62
[3] = tested on: HL-60
[4] = tested on: LOX IMVI
[5] = tested on: COLO 205
[6] = tested on: RPMI-8226
[7] = tested on: NCI-H226
[8] = tested on: EKVX
[9] = tested on: NCI-H460
[10] = tested on: SK-MEL-28
[11] = tested on: SW-620
[12] = tested on: MDA-N
[13] = tested on: RXF 393
[14] = tested on: UACC-257
[15] = tested on: M14
[16] = tested on: Malme-3M
[17] = tested on: DU-145
[18] = tested on: K562
[19] = tested on: Hs-578T
[20] = tested on: MDA-MB-231

Row | SMILES | GI50 [1] | GI50 [2] | GI50 [3] | GI50 [4] | GI50 [5] | GI50 [6] | GI50 [7] | GI50 [8] | GI50 [9] | GI50 [10] | GI50 [11] | GI50 [12] | GI50 [13] | GI50 [14] | GI50 [15] | GI50 [16] | GI50 [17] | GI50 [18] | GI50 [19] | GI50 [20]
1 | O=C1c2cccc(NCCNCCO)c2C(=O)c2cccc(NCCNCCO)c21 | 0.643 µM (active) | 1.29 µM (inactive) | 1.6 µM (inactive) | 0.272 µM (active) | 0.661 µM (active) | 1.2 µM (inactive) | 0.998 µM (active) | 1.78 µM (inactive) | 1.55 µM (inactive) | 1.71 µM (inactive) | 0.714 µM (active) | 0.215 µM (active) | 1.59 µM (inactive) | 3.04 µM (inactive) | 1.81 µM (inactive) | 1.82 µM (inactive) | 0.612 µM (active) | 1.12 µM (active) |  | 
2 | CN(C)CCCn1c2c3ccccc3ccc2c2oc(=O)c3ccccc3c21 | 3.56 µM (inactive) | 5.7 µM (inactive) | 2.28 µM (inactive) | 4.63 µM (inactive) | 2.48 µM (inactive) | 4.63 µM (inactive) | > 35.2 µM (inactive) | 12.7 µM (inactive) | 2.05 µM (inactive) | 7.46 µM (inactive) | 2 µM (inactive) |  | 1.33 µM (inactive) | 8.65 µM (inactive) | 6.03 µM (inactive) | 7.64 µM (inactive) |  | 2.45 µM (inactive) | > 36.6 µM (inactive) | 
3 | O=C1/C(=C\c2ccccc2)CN(C(=O)CCN2CCCCC2)C/C1=C/c1ccccc1 | 1.32 µM (inactive) | 12.9 µM (inactive) | 0.313 µM (active) | 0.283 µM (active) | 1.76 µM (inactive) | 0.0832 µM (active) | 6.11 µM (inactive) | 3.71 µM (inactive) | 2.35 µM (inactive) | 1.97 µM (inactive) | 0.167 µM (active) | 1.19 µM (inactive) | 1.95 µM (inactive) | 1.76 µM (inactive) | 1.7 µM (inactive) | 2.25 µM (inactive) | 5.21 µM (inactive) | 0.179 µM (active) | 0.0153 µM (active) | 1.48 µM (inactive)
4 | Cc1ccc(NC(=O)C(=O)CC(=O)c2c(C)[n+]([O-])c3ccccc3[n+]2[O-])cc1C | > 100 µM (inactive) | > 100 µM (inactive) | > 100 µM (inactive) | > 100 µM (inactive) | 43.7 µM (inactive) | > 100 µM (inactive) | > 100 µM (inactive) | > 100 µM (inactive) | 83 µM (inactive) | > 100 µM (inactive) | 49.4 µM (inactive) |  | 44.7 µM (inactive) | > 100 µM (inactive) | 74.8 µM (inactive) | > 100 µM (inactive) |  | > 100 µM (inactive) |  | 
5 | C[C@H](OCc1ccccc1)C(=O)N1CCS(=O)(=O)N2CCC[C@@H]2C1=O | > 100 µM (inactive) | > 100 µM (inactive) | > 100 µM (inactive) | > 100 µM (inactive) | > 100 µM (inactive) | > 100 µM (inactive) | > 100 µM (inactive) | > 100 µM (inactive) | > 100 µM (inactive) | > 100 µM (inactive) | > 100 µM (inactive) |  | > 100 µM (inactive) | > 100 µM (inactive) | > 100 µM (inactive) | > 100 µM (inactive) |  | > 100 µM (inactive) |  | 
